The text below walks through data of patent US20250134828A1, “MOLECULAR SOLID SUSPENSIONS FOR TRANSDERMAL DRUG DELIVERY” (Starton Therapeutics, Inc., priority 2023, published 2025).

The conditions of data set [1]: cited from earlier work; for Water Sol: Table 2.
The nature of data set [2]: In vitro permeation (flux) test, modified Franz vertical diffusion cell, Strat-M synthetic membrane. The format is in vitro ADME. As to the method:
For in vitro permeation testing, the prepared transdermal formulations in the following examples were subjected to a flux (in vitro permeation) test as follows with either full-split thickness human cadaver skin or Strat-M® synthetic membrane. The full-split thickness human cadaver skin is prepared by thawing at room temperature in DI water, after which it is placed into a 55° C. water bath for a few minutes. After removal from elevated temperature water bath, the stratum corneum layer is removed, inspected, blotted, and cut into suitable sized samples for placement on a modified Franz vertical diffusion cell. Meanwhile, the Strat-M® synthetic membrane is utilized as instructed by the Millipore-Sigma instruction guide on its use. The patches are die cut to a 5/16″ diameter (˜0.5 cm^2) and affixed to the skin with use of an overlay to secure patch to skin. Receiver media is either standard saline (0.9% NaCl in DI water) or a fixed concentration (1%-5%) of povidone in DI Water. Sample volume is 5 mL, Franz cell volume is 5 mL. […] Actual patch size is 0.5 cm^2 with an effective flux area of about 0.6 cm^2. Aliquots taken are analyzed by HPLC method for each independent API. Typically, 3-5 replicates per formulation are performed to ensure adequate statistical significance is obtained for each study.

The format of data set [3] is in vitro ADME.
Data set [4] is described as follows: Drug product stability: potency and degradation products by relative retention time, liquid chromatography. The note with it: with panthenol and/or other humectants; long term stability studies at room temperature and above 40° C. In kind it is physicochemical. The text has this: In Example 9, the effect of the incorporation of a humectant (e.g., panthenol) into the molecular solid suspension on the API stability and permeability is shown. […] In the tables below, TDS-009 includes 8 wt. % LLD, 5 wt. % Panthenol, 10% Poloxamer P407, 5 wt. % crospovidone and 22.5 wt. % Brij L4 in the presence of 49.5 wt. % DuroTak 87-4098 acrylic PSA, while TDS-011 is the same as TDS-009 without presence of 5 wt. % Panthenol, making up for the 5 wt. % difference with additional DuroTak 87-4098 acrylic PSA for a total of 54.5 wt. %.
Generally, the incorporation of panthenol into the molecular solid suspension results in a 10-fold reduction in hydrolytic degradation.
Each of the above formulations was protected from light, but not from ambient storage conditions of about 21° C. and ambient relative humidity.

The structures appear in SMILES notation. Read-outs that look alike come from different tables or passages of the source.

For `Clc1cccc(Cl)c1N=C1NCCN1` [Clonidine], the “Water Sol” value in data set [1] is ~1 mg/mL.
For `C#C[C@]1(O)CC[C@H]2[C@@H]3CCc4cc(O)ccc4[C@H]3CC[C@@]21C` [Ethinyl Estradiol], the “Water Sol” value in data set [1] was ~0.1 mg/mL.
In the case of `CN1C2CCCC1CC(NC(=O)c1nn(C)c3ccccc13)C2` (centres unmarked) [Granisetron], in data set [1], the “Water Sol” value is ~40 mg/mL and the water solubility result is given as “less than 0.1 mg/mL”.
`C[C@@H]1C[C@H]2[C@@H]3CCC4=CC(=O)C=C[C@]4(C)[C@@]3(F)[C@@H](O)C[C@]2(C)[C@@]1(O)C(=O)CO` [dexamethasone]: the “increase in slope (average flux and cumulative flux)” value in data set [2] (5 wt. % dexamethasone, 5 wt. % Kollidon CLM, 20 wt. % Laureth-4, 70 wt. % Durotak 87-4098 vs comparators, FIGS. 9-10) is reported as “almost an infinite increase”.
`O=C1CC[C@H](N2Cc3c(OCc4ccc(CN5CCOCC5)cc4)cccc3C2=O)C(=O)N1` [iberdomide]: in data set [1], the water solubility result is reported as “less than 2 mg/mL”.
Take `Nc1cccc2c1CN(C1CCC(=O)NC1=O)C2=O` (centres unmarked) [lenalidomide]: the observed flux rate in data set [2] (4 wt. % drug formulation, FIGS. 13-14) turned out to be 2.4 μg/cm^2/hr. The average flux rate in data set [2] (6 wt. % lenalidomide without panthenol, FIGS. 13-14) is given as 4.2 μg/cm^2/hr; in data set [2] (6 wt. % lenalidomide without panthenol, FIGS. 15-16) it was 5.1 μg/cm^2/hr; in data set [2] (6 wt. % lenalidomide, 5 wt. % panthenol, after about the 8 hour time point, FIGS. 13-14), 5.4 μg/cm^2/hr; in data set [2] (6 wt. % lenalidomide, 5 wt. % panthenol, after about the 8 hour time point, FIGS. 15-16) it was 7.5 μg/cm^2/hr; in data set [2] (10 wt. % lenalidomide without panthenol, FIGS. 11-12) it was 3.4 μg/cm^2/hr; in data set [2] (10 wt. % lenalidomide, 5 wt. % panthenol, after about the 8 hour time point, FIGS. 11-12), 4.7 μg/cm^2/hr. Besides, the “overall permeation relative to same formulation excluding panthenol” value is listed as “about 1.2 times” in data set [2] (6 wt. % lenalidomide, 5 wt. % panthenol, FIGS. 13-14); “about 1.5 times” in data set [2] (6 wt. % lenalidomide, 5 wt. % panthenol, FIGS. 15-16); “about 1.4 times” in data set [2] (10 wt. % lenalidomide, 5 wt. % panthenol, FIGS. 11-12). In addition, the average flux entry is “increased” in data set [2] (HLB below 12 surfactants (O3, O5) with poloxamer P407 vs without poloxamer, FIG. 21); “about 6 μg/cm^2/hr” in data set [2] (at 24 hours, with both humectant and high HLB nonionic surfactant (panthenol and P407), low HLB surfactant O3, FIG. 17); “significantly higher” in data set [2] (formulations with greater than about 15 wt. % O3 vs about 15 wt. % or less, FIG. 19); “significantly higher” in data set [3] (formulations with greater than about 15 wt. % O3 vs about 15 wt. % or less, FIG. 18); “increased” in data set [3] (nonionic surfactants with HLB below 12 (O3, O5) vs HLB above 12 (O10, O20), FIG. 20). Further, the hydrolytic degradation result in data set [4] is listed as “inhibits hydrolytic degradation”.
On to `Cc1cc2c(s1)Nc1ccccc1N=C2N1CCN(C)CC1` [olanzapine, 2-methyl-10-(4-methyl-1-piperazinyl)-4H-thieno-[2,3-b][1,5]benzo-diazepine], for which the depletion in data set [2] (5 wt. % olanzapine molecular solid suspension with Laureth-4, after about 24 hours) was determined as 100%; in data set [2] (other two olanzapine formulations (no Laureth-4), over 72 hours), 60%. In addition, in data set [2] (5 wt. % olanzapine molecular solid suspension with Laureth-4 vs comparators, FIG. 3), the “increase in availability (average flux) at about 8-hour time point” value is reported as “about 16 ×”. The “increase in slope for cumulative flux” value in data set [2] (5 wt. % olanzapine, 5 wt. % Kollidon CLM, 20 wt. % Laureth-4, 70 wt. % Durotak 87-4098 vs formulations without Laureth-4, FIG. 4) is recorded as “approximately 1.2 ×”.
